Measured values as given in article PMC3880581 (Nature, 2012).

Target: AtCHI (Arabidopsis thaliana, UniProt P41088)
Details: cyclization of the chalcone; constant not given

AtCHI, sequence (P41088 whole entry): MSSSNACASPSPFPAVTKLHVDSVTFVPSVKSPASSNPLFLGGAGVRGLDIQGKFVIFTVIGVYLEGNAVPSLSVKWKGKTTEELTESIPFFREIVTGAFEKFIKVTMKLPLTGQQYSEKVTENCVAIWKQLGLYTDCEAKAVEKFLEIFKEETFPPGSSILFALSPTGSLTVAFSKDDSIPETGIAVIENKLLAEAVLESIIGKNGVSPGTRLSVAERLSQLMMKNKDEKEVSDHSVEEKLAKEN

O=C1C[C@@H](c2ccc(O)cc2)Oc2cc(O)cc(O)c21 [(2S)-naringenin]
CHI activity assay: AtCHI catalyzes the in vitro formation of (2S)-naringenin
